Here are results for three compounds from article PMC10649913 (Journal for Immunotherapy of Cancer, 2023).

In one assay the test system is AhR. Particulars: cited from earlier work.
The conditions of assay [1]: cited from earlier work.
Assay [2] deals with human T cells cocultured with moDCs. In words: Human mixed lymphocyte reaction. In kind it is cell-based. Particulars: LPS and IFN-γ-matured moDCs, 3 days, 1 nM–1 µM.
Assay [3] has as its system coculture of H1299 NSCLC cells, primary human PBMCs, and primary human fibroblasts. The experiment in a line: BioMAP Oncology Panel. The conditions noted are these: 0.37, 1.1, or 3.3 µM, 48 hours. In kind it is cell-based.

Turning to `CC(C)n1cnc2c(NCCc3ccc(O)cc3)nc(-c3csc4ccccc34)nc21` [SR1], the Mouse cross-reactivity entry in the assay with AhR is “not mouse cross-reactive”. As for `Cc1ccccc1N=Nc1ccc(NC(=O)c2ccnn2C)c(C)c1` [CH-223191], the AhR-independent activities entry in assay [1] is “AhR-independent proproliferative activities”. As for `NS(=O)(=O)NCCNc1nonc1C(=NO)Nc1ccc(F)c(Br)c1` [epacadostat], the “IL-2 production from T cells (MLR)” value in assay [2] is on record as “no effect”. The “Cytokine production (IFN-γ, IL-17, IL-2, IL-6, TNF-α)” value in assay [3] is “predominantly anti-inflammatory responses with decreases in IFN-γ, IL-2, IL-6, and IL-17”.
